US20230203025A1, “ENHANCERS OF PARTICULATE GUANYLYL CYCLASE RECEPTOR A” (Mayo Foundation for Medical Education and Research, priority 2020, published 2023)
Several values for one entry are separate records, joined by “and”; a condition that tells them apart may be missing. Equal entries are not always repeated.

Legend:
[1] = system: primary human cardiomyocytes (HCMs); test: inhibition of TGF-beta 1 induced human cardiomyocyte hypertrophy; format: cell-based; details: TGF-β1 5 ng/mL
Method: Methods (Inhibition of Human Cardiac Hypertrophy In Vitro): primary human cardiomyocytes (HCMs) were grown in growth media to 50% confluence and then were subjected to serum starvation for 24 hrs. After that, 5 ng/mL of the cytokine TGFβ-1 (R&D Systems) was added to the media for 48 hrs to induce HCM hypertrophy. […] Normal cell buffer served as a vehicle only control, where TGFP-1 alone served as the positive control. Analysis for cell surface area (μm^2) was performed using the ImageJ software at the end of the study.
Results: to further support the cGMP generation in human primary cells leads to favorable biological GC-A mediated, the anti-hypertrophic effects were assessed of Compound 19 on live HCMs stressed with TGF-β1 (5 ng/mL), using a state-of-the-art live cell imaging platform (IncuCyte System).

pGC-A = biological target: T1, pGC-A (Homo sapiens, UniProt P16066); test: cGMP production by HTRF in HEK293 cells overexpressing pGC-A; format: cell-based; details: for Emax: HEK293, cGMP normalized to maximal amount produced by an EC80 concentration of ANP, read-out: Max efficacy; for EC50: HEK293 pGC-A cells, cGMP HTRF, in the presence of EC20 concentration of ANP
T1 construct: expressed in transfected cells; host or cells: HEK293
T1 sequence (P16066 33-1061): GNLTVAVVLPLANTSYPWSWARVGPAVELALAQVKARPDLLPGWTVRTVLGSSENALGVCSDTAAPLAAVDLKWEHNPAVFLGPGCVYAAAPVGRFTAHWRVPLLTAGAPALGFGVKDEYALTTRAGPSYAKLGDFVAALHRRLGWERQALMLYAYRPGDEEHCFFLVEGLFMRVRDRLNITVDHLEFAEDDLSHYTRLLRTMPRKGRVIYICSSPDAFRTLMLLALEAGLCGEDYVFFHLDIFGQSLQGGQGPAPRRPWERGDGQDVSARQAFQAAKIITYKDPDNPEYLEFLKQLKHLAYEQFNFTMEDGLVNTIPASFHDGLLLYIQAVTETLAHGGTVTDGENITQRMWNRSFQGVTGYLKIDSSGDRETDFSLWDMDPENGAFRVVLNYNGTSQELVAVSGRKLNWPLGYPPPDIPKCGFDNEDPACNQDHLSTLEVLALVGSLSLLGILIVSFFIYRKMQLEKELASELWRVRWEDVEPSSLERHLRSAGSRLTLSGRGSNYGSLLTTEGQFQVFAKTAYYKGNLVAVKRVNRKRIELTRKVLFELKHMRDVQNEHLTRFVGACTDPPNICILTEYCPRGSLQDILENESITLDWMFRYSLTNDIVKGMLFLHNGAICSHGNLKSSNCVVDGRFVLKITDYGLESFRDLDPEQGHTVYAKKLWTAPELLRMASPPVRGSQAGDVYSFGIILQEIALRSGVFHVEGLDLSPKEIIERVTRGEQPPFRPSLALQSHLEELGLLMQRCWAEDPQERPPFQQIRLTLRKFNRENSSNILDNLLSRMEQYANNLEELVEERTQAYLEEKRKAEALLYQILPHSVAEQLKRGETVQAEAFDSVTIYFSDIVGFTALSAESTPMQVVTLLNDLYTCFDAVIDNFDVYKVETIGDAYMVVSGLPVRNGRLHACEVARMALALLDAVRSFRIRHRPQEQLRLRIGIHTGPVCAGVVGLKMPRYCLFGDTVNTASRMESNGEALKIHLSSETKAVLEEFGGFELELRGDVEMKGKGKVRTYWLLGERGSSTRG
T1 sequence (P01160 124-151 partner limits assumed): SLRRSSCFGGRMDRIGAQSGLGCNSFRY
Method: Assay details: 20 nL of 10 μM test compound in DMSO was added to columns 5-48 of 1536 well white high base screening plates (Corning, New York, N.Y.) cells using 550 ECHO acoustic dispenser (Labcyte, San Jose, Calif.). […] HEK293 cells overexpressing GC-A were resuspended in assay media (OptimMem media containing 2% Heat-inactivated Fetal bovine serum and L-glutamine) at a density of 6×10^5 cells/mL and 2 μL were plated in screening plates (1200 cells/well) in suspension using a Bioraptr 2. Plates were spun at 1000 rpm for 1 min and incubated for 30 min at room temperature. 1.5 μL d2-labled cGMP followed by 1.5 uL Eu^3+ cryptate-labeled anti-cGMP cGMP detection kit (CiBio; #62GM2PEC) prepared according to manufacturer's protocol were added to all wells using a Bioraptr 2 and TR-FRET signal was detected on an EnVision detector (PerkinElmer).

[2] = rodent microsomal stability; format: in vitro ADME; details: FIG. 3
in vitro solubility = format: physicochemical; details: FIG. 3

Row | Emax (pGC-A) [%] | EC50 (pGC-A) | SMILES | further results
1 |  |  | CC[C@H](C)[C@@H]1NC(=O)[C@H](CCCNC(=N)N)NC(=O)[C@H](CC(=O)O)NC(=O)[C@H](CCSC)NC(=O)[C@H](CCCNC(=N)N)NC(=O)CNC(=O)CNC(=O)[C@H](Cc2ccccc2)NC(=O)[C@@H](NC(=O)[C@H](CO)NC(=O)[C@H](CO)NC(=O)[C@H](CCCNC(=N)N)NC(=O)[C@H](CCCNC(=N)N)NC(=O)[C@H](CC(C)C)NC(=O)[C@@H](N)CO)CSSC[C@@H](C(=O)N[C@@H](CC(N)=O)C(=O)N[C@@H](CO)C(=O)N[C@@H](Cc2ccccc2)C(=O)N[C@@H](CCCNC(=N)N)C(=O)N[C@@H](Cc2ccc(O)cc2)C(=O)O)NC(=O)CNC(=O)[C@H](CC(C)C)NC(=O)CNC(=O)[C@H](CO)NC(=O)[C@H](CCC(N)=O)NC(=O)[C@H](C)NC(=O)CNC1=O [ANP, reference compound] | inhibition of HCM hypertrophy ([1]; ANP 10^−8 M alone): significant inhibition; inhibition of HCM hypertrophy ([1]; ANP 10^−10 M alone): no effect
2 | 84 | 6860 nM | O=C(Nc1nc2c(F)cc(F)cc2s1)C1CCN(C(=O)c2ccccc2)C1 (centres unmarked) [Compound 25] | 
3 | 64 | 8260 nM | CC(C)(C)OC(=O)N1CCCC(C(=O)Nc2nc3c(F)cc(F)cc3s2)C1 (centres unmarked) [Compound 7] | 
4 | 77 | 1810 nM | O=C(Nc1nc2c(F)cc(F)cc2s1)C1CCCN(C(=O)C2CCC2)C1 (centres unmarked) [Compound 10] | 
5 | 81 | 1630 nM | CN(C)CCN1CCC(C(=O)Nc2nc3c(F)cc(F)cc3s2)C1 (centres unmarked) [Compound 32] | 
6 | 84 | 2090 nM | CC(C)(C)C(=O)N1CCC(C(=O)Nc2nc3c(F)cc(F)cc3s2)C1 (centres unmarked) [Compound 21] | 
7 | 74 | 3570 nM | CC(C)(C)CC(=O)N1CCCC(C(=O)Nc2nc3c(F)cc(F)cc3s2)C1 (centres unmarked) [Compound 13] | 
8 | 66 | 2410 nM | O=C(Nc1nc2c(F)cc(F)cc2s1)C1CCCN(Cc2ccccc2)C1 (centres unmarked) [Compound 16] | 
9 | 79 | 1650 nM | CC(=O)N1CCCC(C(=O)Nc2nc3c(F)cc(F)cc3s2)C1 (centres unmarked) [Compound 11] | 
10 | 81 | 3230 nM | CC(C)(C)CC(=O)N1CCC(C(=O)Nc2nc3c(F)cc(F)cc3s2)C1 (centres unmarked) [Compound 26] | 
11 | 82 | 1050 nM | O=C(Nc1nc2c(F)cc(F)cc2s1)C1CCCNC1 (centres unmarked) [Compound 18] | 
12 | 84 | 1790 nM | CN1CCC(C(=O)Nc2nc3c(F)cc(F)cc3s2)C1 (centres unmarked) [Compound 30] | 
13 | 74 | 4380 nM | CC(C)(C)OC(=O)N1CCC(C(=O)Nc2nc3c(F)cc(F)cc3s2)C1 (centres unmarked) [Compound 20] | 
14 |  | > 66000 nM | CC(C)(C)C(=O)N1CCC(C(=O)Nc2nc3c(Cl)ccc(Cl)c3s2)CC1 [Compound 5] | 
15 | 84 | 1570 nM | O=C(Nc1nc2c(F)cc(F)cc2s1)C1CCNC1 (centres unmarked) [Compound 31] | 
16 | 66 | 2690 nM | O=C(Nc1nc2c(F)cc(F)cc2s1)C1CCN(C(=O)Cc2ccccc2)C1 (centres unmarked) [Compound 27] | 

Row | Emax (pGC-A) [%] | EC50 (pGC-A) | SMILES | further results
17 | 83 | 2180 nM and 1380 nM and 1570 nM | CC(C)(C)C(=O)N1CCC(C(=O)Nc2nc3c(F)cc(F)cc3s2)CC1 [Compound 1] | rodent microsomal stability compared to compound A [2]: improved; solubility compared to compound A (in vitro solubility): improved; potency compared to compound A (pGC-A; HEK pGC-A cGMP, FIG. 2-3): improved potency; Max efficacy (pGC-A; cGMP normalized to maximal amount produced by an EC80 concentration of ANP): 76% and 77%
18 | 51 | 2000 nM | CC(C)(C)C(=O)N1CCC(C(=O)Nc2nc3c(Cl)cccc3s2)CC1 [Compound 6] | 
19 | 80 | 840 nM | CC(C)N1CCC(C(=O)Nc2nc3c(F)cc(F)cc3s2)CC1 [Compound 4] | 
20 | 73 | 5070 nM | CC(C)(C)C(=O)N1CCCC(C(=O)Nc2nc3c(F)cc(F)cc3s2)C1 (centres unmarked) [Compound 8] | 
21 | 82 | 6250 nM | O=C(Nc1nc2c(F)cc(F)cc2s1)C1CCN(C(=O)C2CC2)C1 (centres unmarked) [Compound 22] | 
22 | 79 | 1720 nM | O=C(Nc1nc2c(F)cc(F)cc2s1)C1CCN(C(=O)C2CCC2)CC1 [Compound 2] | 
23 | 74 | 1150 nM | CC(=O)N1CCC(C(=O)Nc2nc3c(F)cc(F)cc3s2)CC1 [Compound 3] | 
24 | 84 | 560 nM | CC(=O)N1CCC(C(=O)Nc2nc3c(F)cc(F)cc3s2)C1 (centres unmarked) [Compound 24] | 
25 | 66 | 990 nM | CS(=O)(=O)N1CCC(C(=O)Nc2nc3c(F)cc(F)cc3s2)C1 (centres unmarked) [Compound 28] | 
26 | 64 | 3360 nM | O=C(Nc1nc2c(F)cc(F)cc2s1)C1CCCN(C(=O)c2ccccc2)C1 (centres unmarked) [Compound 12] | 
27 | 77 | 1750 nM | CS(=O)(=O)N1CCCC(C(=O)Nc2nc3c(F)cc(F)cc3s2)C1 (centres unmarked) [Compound 15] | 
28 | 71 | 2020 nM | O=C(Nc1nc2c(F)cc(F)cc2s1)C1CCCN(C(=O)Cc2ccccc2)C1 (centres unmarked) [Compound 14] | 
29 | 82 | 1970 nM | O=C(Nc1nc2c(F)cc(F)cc2s1)C1CCCN(C(=O)C2CC2)C1 (centres unmarked) [Compound 9] | 
30 | 81 | 1230 nM | CN1CCCC(C(=O)Nc2nc3c(F)cc(F)cc3s2)C1 (centres unmarked) [Compound 17] | 
31 | 82 | 6060 nM | O=C(Nc1nc2c(F)cc(F)cc2s1)C1CCN(C(=O)C2CCC2)C1 (centres unmarked) [Compound 23] | 
